# Tests used:
# Assay type in all cases: functional
# [1] = tested on: HCT-116; test: Cytotoxicity against human HCT116 cells assessed as cellular growth at 10 uM by SRB assay
# [2] = tested on: MDA-MB-231; test: Cytotoxicity against human MDA-MB-231 cells assessed as cellular growth at 10 uM by SRB assay
# [3] = tested on: PC-3; test: Cytotoxicity against human PC3 cells assessed as cellular growth at 10 uM by SRB assay
# [4] = tested on: SK-MEL-5; test: Cytotoxicity against human SK-MEL-5 cells assessed as cellular growth at 10 uM by SRB assay
# [5] = tested on: SK-MEL-28; test: Cytotoxicity against human SK-MEL-28 cells assessed as cellular growth at 10 uM by SRB assay
# [6] = tested on: MOLT-4; test: Cytotoxicity against human MOLT4 cells assessed as cellular growth at 10 uM by SRB assay
# [7] = tested on: SNB-19; test: Cytotoxicity against human SNB19 cells assessed as cellular growth at 10 uM by SRB assay
# [8] = tested on: NCI-H226; test: Cytotoxicity against human NCI-H226 cells assessed as cellular growth at 10 uM by SRB assay
# [9] = tested on: HL-60(TB); test: Cytotoxicity against human HL-60(TB) cells assessed as cellular growth at 10 uM by SRB assay
# [10] = tested on: HOP-62; test: Cytotoxicity against human HOP62 cells assessed as cellular growth at 10 uM by SRB assay
# [11] = tested on: UACC-257; test: Cytotoxicity against human UACC257 cells assessed as cellular growth at 10 uM by SRB assay
# [12] = tested on: BT-549; test: Cytotoxicity against human BT549 cells assessed as cellular growth at 10 uM by SRB assay
# [13] = tested on: OVCAR-3; test: Cytotoxicity against human OVCAR3 cells assessed as cellular growth at 10 uM by SRB assay
# [14] = tested on: UACC-62; test: Cytotoxicity against human UACC62 cells assessed as cellular growth at 10 uM by SRB assay
# [15] = tested on: MCF7; test: Cytotoxicity against human MCF7 cells assessed as cellular growth at 10 uM by SRB assay
# [16] = tested on: SF-295; test: Cytotoxicity against human SF295 cells assessed as cellular growth at 10 uM by SRB assay
# [17] = tested on: COLO 205; test: Cytotoxicity against human COLO205 cells assessed as cellular growth at 10 uM by SRB assay
# [18] = tested on: MDA-MB-468; test: Cytotoxicity against human MDA-MB-468 cells assessed as cellular growth at 10 uM by SRB assay
# [19] = tested on: HCC 2998; test: Cytotoxicity against human HCC2998 cells assessed as cellular growth at 10 uM by SRB assay
# [20] = tested on: RXF 393; test: Cytotoxicity against human RXF393 cells assessed as cellular growth at 10 uM by SRB assay
# [21] = tested on: Malme-3M; test: Cytotoxicity against human MALME-3M cells assessed as cellular growth at 10 uM by SRB assay
# [22] = tested on: CCRF-CEM; test: Cytotoxicity against human CCRF-CEM cells assessed as cellular growth at 10 uM by SRB assay
# [23] = tested on: HOP-92; test: Cytotoxicity against human HOP92 cells assessed as cellular growth at 10 uM by SRB assay
# [24] = tested on: M14; test: Cytotoxicity against human M14 cells assessed as cellular growth at 10 uM by SRB assay
# [25] = tested on: 786-0; test: Cytotoxicity against human 786-0 cells assessed as cellular growth at 10 uM by SRB assay
# [26] = tested on: ACHN; test: Cytotoxicity against human ACHN cells assessed as cellular growth at 10 uM by SRB assay
# [27] = tested on: OVCAR-8; test: Cytotoxicity against human OVCAR8 cells assessed as cellular growth at 10 uM by SRB assay
# [28] = tested on: A498; test: Cytotoxicity against human A498 cells assessed as cellular growth at 10 uM by SRB assay
# [29] = tested on: UO-31; test: Cytotoxicity against human UO31 cells assessed as cellular growth at 10 uM by SRB assay
# [30] = tested on: NCI-H522; test: Cytotoxicity against human NCI-H522 cells assessed as cellular growth at 10 uM by SRB assay
# [31] = tested on: SF-539; test: Cytotoxicity against human SF539 cells assessed as cellular growth at 10 uM by SRB assay
# [32] = tested on: SNB-75; test: Cytotoxicity against human SNB75 cells assessed as cellular growth at 10 uM by SRB assay
# [33] = tested on: NCI-H23; test: Cytotoxicity against human NCI-H23 cells assessed as cellular growth at 10 uM by SRB assay
# [34] = tested on: KM12; test: Cytotoxicity against human KM12 cells assessed as cellular growth at 10 uM by SRB assay
# [35] = tested on: MDA-MB-435; test: Cytotoxicity against human MDA-MB-435 cells assessed as cellular growth at 10 uM by SRB assay
# [36] = tested on: DU-145; test: Cytotoxicity against human DU145 cells assessed as cellular growth at 10 uM by SRB assay
# [37] = tested on: IGROV-1; test: Cytotoxicity against human IGROV1 cells assessed as cellular growth at 10 uM by SRB assay
# [38] = tested on: SF-268; test: Cytotoxicity against human SF268 cells assessed as cellular growth at 10 uM by SRB assay
# [39] = tested on: SN12C; test: Cytotoxicity against human SN12C cells assessed as cellular growth at 10 uM by SRB assay
# [40] = tested on: TK-10; test: Cytotoxicity against human TK10 cells assessed as cellular growth at 10 uM by SRB assay
# [41] = tested on: HT-29; test: Cytotoxicity against human HT-29 cells assessed as cellular growth at 10 uM by SRB assay
# [42] = tested on: A549; test: Cytotoxicity against human A549 cells assessed as cellular growth at 10 uM by SRB assay
# [43] = tested on: U-251; test: Cytotoxicity against human U251 cells assessed as cellular growth at 10 uM by SRB assay
# [44] = tested on: SW-620; test: Cytotoxicity against human SW620 cells assessed as cellular growth at 10 uM by SRB assay
# [45] = tested on: SK-OV-3; test: Cytotoxicity against human SKOV3 cells assessed as cellular growth at 10 uM by SRB assay
# [46] = Cytotoxicity against human NCI-ADR-RES cells assessed as cellular growth at 10 uM by SRB assay
# [47] = tested on: SR; test: Cytotoxicity against human SR cells assessed as cellular growth at 10 uM by SRB assay
# [48] = tested on: HCT-15; test: Cytotoxicity against human HCT15 cells assessed as cellular growth at 10 uM by SRB assay
# [49] = tested on: EKVX; test: Cytotoxicity against human EKVX cells assessed as cellular growth at 10 uM by SRB assay
# [50] = tested on: K562; test: Cytotoxicity against human K562 cells assessed as cellular growth at 10 uM by SRB assay
# [51] = tested on: NCI-H460; test: Cytotoxicity against human NCI-H460 cells assessed as cellular growth at 10 uM by SRB assay
# [52] = tested on: LOX IMVI; test: Cytotoxicity against human LOXIMVI cells assessed as cellular growth at 10 uM by SRB assay
# [53] = tested on: SK-MEL-2; test: Cytotoxicity against human SK-MEL-2 cells assessed as cellular growth at 10 uM by SRB assay
# [54] = tested on: OVCAR-5; test: Cytotoxicity against human OVCAR5 cells assessed as cellular growth at 10 uM by SRB assay
# [55] = tested on: Hs-578T; test: Cytotoxicity against human Hs578T cells assessed as cellular growth at 10 uM by SRB assay
# [56] = tested on: CAKI-1; test: Cytotoxicity against human Caki1 cells assessed as cellular growth at 10 uM by SRB assay
# [57] = tested on: NCI-H322M; test: Cytotoxicity against human NCI-H322M cells assessed as cellular growth at 10 uM by SRB assay
# [58] = tested on: T47D; test: Cytotoxicity against human T47D cells assessed as cellular growth at 10 uM by SRB assay
# [59] = tested on: RPMI-8226; test: Cytotoxicity against human RPMI8226 cells assessed as cellular growth at 10 uM by SRB assay
# [60] = tested on: OVCAR-4; test: Cytotoxicity against human OVCAR4 cells assessed as cellular growth at 10 uM by SRB assay
smiles,measurement,setting,value
CC1(C)CCc2cc(-c3ccn(S(=O)(=O)c4cccc(C(F)(F)F)c4)n3)ccc2O1,Activity,[1],74.24%
same,Activity,[2],95.04%
same,Activity,[3],88.93%
same,Activity,[4],69.29%
same,Activity,[5],105.56%
same,Activity,[6],66.45%
same,Activity,[7],103.83%
same,Activity,[8],90.51%
same,Activity,[9],72.67%
same,Activity,[10],102.63%
same,Activity,[11],81.69%
same,Activity,[12],119.64%
same,Activity,[13],101.58%
same,Activity,[14],84.21%
same,Activity,[15],87.68%
same,Activity,[16],108.32%
same,Activity,[17],123.8%
same,Activity,[18],67.07%
same,Activity,[19],104.44%
same,Activity,[20],97.2%
same,Activity,[21],102.22%
same,Activity,[22],74.11%
same,Activity,[23],38.91%
same,Activity,[24],97.31%
same,Activity,[25],85.72%
same,Activity,[26],109.2%
same,Activity,[27],93.92%
same,Activity,[28],94.88%
same,Activity,[29],97.36%
same,Activity,[30],87.1%
same,Activity,[31],116.68%
same,Activity,[32],102.76%
same,Activity,[33],81.53%
same,Activity,[34],98.53%
same,Activity,[35],97.38%
same,Activity,[36],98.46%
same,Activity,[37],109.7%
same,Activity,[38],102.56%
same,Activity,[39],91.59%
same,Activity,[40],82.31%
same,Activity,[41],71.22%
same,Activity,[42],80.37%
same,Activity,[43],81.96%
same,Activity,[44],88.93%
same,Activity,[45],96.16%
same,Activity,[46],88.98%
same,Activity,[47],66.68%
same,Activity,[48],89.34%
same,Activity,[49],70.44%
same,Activity,[50],63.16%
same,Activity,[51],90%
same,Activity,[52],92.84%
same,Activity,[53],107.75%
same,Activity,[54],108.57%
same,Activity,[55],107.85%
same,Activity,[56],105.83%
same,Activity,[57],106.64%
same,Activity,[58],66.31%
same,Activity,[59],68.84%
Cc1ccc(S(=O)(=O)NC2=NC(=O)/C(=C\c3ccccc3)S2)cc1,Activity,[1],111.6%
same,Activity,[2],100.89%
same,Activity,[3],111.74%
same,Activity,[4],100.29%
same,Activity,[5],114.12%
same,Activity,[6],86.66%
same,Activity,[7],108.61%
same,Activity,[8],108.84%
same,Activity,[9],92.36%
same,Activity,[10],100.56%
same,Activity,[11],104.4%
same,Activity,[12],113.45%
same,Activity,[13],116.48%
same,Activity,[14],96.39%
same,Activity,[15],97.41%
same,Activity,[16],114.32%
same,Activity,[18],110.23%
same,Activity,[19],106.96%
same,Activity,[20],118.7%
same,Activity,[21],112.01%
same,Activity,[22],92.01%
same,Activity,[24],110.84%
same,Activity,[25],107.82%
same,Activity,[26],103.63%
same,Activity,[27],102.48%
same,Activity,[28],11.33%
same,Activity,[29],90.79%
same,Activity,[30],85.18%
same,Activity,[31],96.06%
same,Activity,[32],88.62%
same,Activity,[33],107.93%
same,Activity,[34],115%
same,Activity,[35],110.94%
same,Activity,[36],111.67%
same,Activity,[37],124.8%
same,Activity,[38],99.46%
same,Activity,[39],99.26%
same,Activity,[40],104.1%
same,Activity,[41],109.22%
same,Activity,[42],103.33%
same,Activity,[60],96.34%
same,Activity,[43],98.58%
same,Activity,[44],109.53%
same,Activity,[45],107.71%
same,Activity,[46],108.06%
same,Activity,[47],95.9%
same,Activity,[48],104.84%
same,Activity,[49],99.77%
same,Activity,[50],94.57%
same,Activity,[51],119.27%
same,Activity,[52],99.09%
same,Activity,[53],117.54%
same,Activity,[54],111.88%
same,Activity,[55],128.48%
same,Activity,[56],102.92%
same,Activity,[57],114.86%
same,Activity,[58],100.5%
same,Activity,[59],104.04%
